Measured values published in publication PMC7407272, “Induction of Lysosome Membrane Permeabilization as a Therapeutic Strategy to Target Pancreatic Cancer Stem Cells” (Cancers, 2020).

How the values were obtained:
DCAMKL1 = target: T1, DCAMKL1 (Homo sapiens, UniProt O15075); experiment: KINOMEscan; type: binding; details: read-out: % Ctrl
T1 construct: purchased DiscoveRx KINOMEscan

JNK1 = target: T2, JNK1 (Homo sapiens, UniProt P45983); experiment: KINOMEscan; type: binding; details: read-out: % Ctrl
T2 construct: purchased DiscoveRx KINOMEscan

MAP3K15 = target: T3, MAP3K15 (Homo sapiens, UniProt Q6ZN16); experiment: KINOMEscan; type: binding; details: read-out: % Ctrl
T3 construct: purchased DiscoveRx KINOMEscan

MLCK = target: T4, MLCK (Homo sapiens, UniProt Q32MK0); experiment: KINOMEscan; type: binding; details: read-out: % Ctrl
T4 construct: purchased DiscoveRx KINOMEscan

CSNK2A2 = target: T5, CSNK2A2 (Homo sapiens, UniProt P19784); experiment: KINOMEscan; type: binding; details: read-out: % Ctrl
T5 construct: purchased DiscoveRx KINOMEscan

PIP5K2B = target: T6, PIP5K2B (Homo sapiens, UniProt P78356); experiment: KINOMEscan; type: binding; details: read-out: % Ctrl
T6 construct: purchased DiscoveRx KINOMEscan

MARK3 = target: T7, MARK3 (Homo sapiens, UniProt P27448); experiment: KINOMEscan; type: binding; details: read-out: % Ctrl
T7 construct: purchased DiscoveRx KINOMEscan

Pharmacokinetic study = type: in vivo; details: BALB/c mice
Protocol: Female BABL/c mice, 10 weeks old were used (n = 3 per time point). Compound 2 was formulated in 0.9% NaCl solution for both oral and intravenous (i.v.) injections. Plasma samples were collected following a single i.v. or oral administration of 8 mg/kg at 0.08, 0.16, 0.25, 0.5, 1, 4, 8 and 24 h. The extraction of Cpd 2 from plasma was achieved by solid phase extraction followed by high performance liquid chromatography/tandem mass spectrometry (Agilent 1100, Applied Biosystems API2000) analysis. The amount of inhibitor and the internal standard in each mouse plasma sample were quantified based on calibration curves generated using standards of known concentrations of compound. This assay method was sufficiently accurate for the quantification of Cpd 2 with a limit of detection (LOD) and a low limit of quantification (LLOQ) of 5 ng/mL. Pharmacokinetic parameters were estimated using WinNonlin Version 5.2 software (Pharsight Corp., Mountain View, CA, USA), by fitting both the experimental i.v and oral data to a bicompartimental model.

HUNK = target: T8, HUNK (Homo sapiens, UniProt P57058); experiment: KINOMEscan; type: binding; details: read-out: % Ctrl
T8 construct: purchased DiscoveRx KINOMEscan

PAK4 = target: T9, PAK4 (Homo sapiens, UniProt O96013); experiment: KINOMEscan; type: binding; details: read-out: % Ctrl
T9 construct: purchased DiscoveRx KINOMEscan

PIP5K1C = target: T10, PIP5K1C (Homo sapiens, UniProt O60331); experiment: KINOMEscan; type: binding; details: read-out: % Ctrl
T10 construct: purchased DiscoveRx KINOMEscan

ADCK4 = target: T11, ADCK4 (Homo sapiens, UniProt Q96D53); experiment: KINOMEscan; type: binding; details: read-out: % Ctrl
T11 construct: purchased DiscoveRx KINOMEscan

FRK = target: T12, FRK (Homo sapiens, UniProt P42685); experiment: KINOMEscan; type: binding; details: read-out: % Ctrl
T12 construct: purchased DiscoveRx KINOMEscan

PDGFRA = target: T13, PDGFRA (Homo sapiens, UniProt P16234); experiment: KINOMEscan; type: binding; details: read-out: % Ctrl
T13 construct: purchased DiscoveRx KINOMEscan

PCTK3 = target: T14, PCTK3 (Homo sapiens, UniProt Q07002); experiment: KINOMEscan; type: binding; details: read-out: % Ctrl
T14 construct: purchased DiscoveRx KINOMEscan

YANK2 = target: T15, YANK2 (Homo sapiens, UniProt Q9NY57); experiment: KINOMEscan; type: binding; details: read-out: % Ctrl
T15 construct: purchased DiscoveRx KINOMEscan

NEK9 = target: T16, NEK9 (Homo sapiens, UniProt Q8TD19); experiment: KINOMEscan; type: binding; details: read-out: % Ctrl
T16 construct: purchased DiscoveRx KINOMEscan

AXL = target: T17, AXL (Homo sapiens, UniProt P30530); experiment: KINOMEscan; type: binding; details: read-out: % Ctrl
T17 construct: purchased DiscoveRx KINOMEscan

MET = target: T18, MET (Homo sapiens, UniProt P08581); experiment: KINOMEscan; type: binding; details: read-out: % Ctrl
T18 construct: purchased DiscoveRx KINOMEscan

PRKG2 = target: T19, PRKG2 (Homo sapiens, UniProt Q13237); experiment: KINOMEscan; type: binding; details: read-out: % Ctrl
T19 construct: purchased DiscoveRx KINOMEscan

TYK2(JH1D.-cat.) = target: T20, TYK2(JH1D.-cat.) (Homo sapiens, UniProt P29597); experiment: KINOMEscan; type: binding; details: read-out: % Ctrl
T20 construct: TYK2(JH1D.-cat.); purchased DiscoveRx KINOMEscan

CTK = target: T21, CTK (Homo sapiens, UniProt P42679); experiment: KINOMEscan; type: binding; details: read-out: % Ctrl
T21 construct: purchased DiscoveRx KINOMEscan

VRK2 = target: T22, VRK2 (Homo sapiens, UniProt Q86Y07); experiment: KINOMEscan; type: binding; details: read-out: % Ctrl
T22 construct: purchased DiscoveRx KINOMEscan

AAK1 = target: T23, AAK1 (Homo sapiens, UniProt Q2M2I8); experiment: KINOMEscan; type: binding; details: read-out: % Ctrl
T23 construct: purchased DiscoveRx KINOMEscan

QSK = target: T24, QSK (Homo sapiens, UniProt Q9Y2K2); experiment: KINOMEscan; type: binding; details: read-out: % Ctrl
T24 construct: purchased DiscoveRx KINOMEscan

TSSK3 = target: T25, TSSK3 (Homo sapiens, UniProt Q96PN8); experiment: KINOMEscan; type: binding; details: read-out: % Ctrl
T25 construct: purchased DiscoveRx KINOMEscan

KIT(V559D,T670I) = target: T26, KIT(V559D,T670I) (Homo sapiens, UniProt P10721, T670I/V559D); experiment: KINOMEscan; type: binding; details: read-out: % Ctrl
T26 construct: purchased DiscoveRx KINOMEscan

JNK3 = target: T27, JNK3 (Homo sapiens, UniProt P53779); experiment: KINOMEscan; type: binding; details: read-out: % Ctrl
T27 construct: purchased DiscoveRx KINOMEscan

STK35 = target: T28, STK35 (Homo sapiens, UniProt Q8TDR2); experiment: KINOMEscan; type: binding; details: read-out: % Ctrl
T28 construct: purchased DiscoveRx KINOMEscan

LKB1 = target: T29, LKB1 (Homo sapiens, UniProt Q15831); experiment: KINOMEscan; type: binding; details: read-out: % Ctrl
T29 construct: purchased DiscoveRx KINOMEscan

ABL1(H396P)-nonP = target: T30, ABL1(H396P)-nonP (Homo sapiens, UniProt P00519, H396P); experiment: KINOMEscan; type: binding; details: read-out: % Ctrl
T30 construct: purchased DiscoveRx KINOMEscan

TGFBR1 = target: T31, TGFBR1 (Homo sapiens, UniProt P36897); experiment: KINOMEscan; type: binding; details: read-out: % Ctrl
T31 construct: purchased DiscoveRx KINOMEscan

BRSK2 = target: T32, BRSK2 (Homo sapiens, UniProt Q8IWQ3); experiment: KINOMEscan; type: binding; details: read-out: % Ctrl
T32 construct: purchased DiscoveRx KINOMEscan

FLT3(ITD,F691L) = experiment: KINOMEscan; type: binding, human; details: 1 µM
TAK1 = target: T33, TAK1 (Homo sapiens, UniProt O43318); experiment: KINOMEscan; type: binding; details: read-out: % Ctrl
T33 construct: purchased DiscoveRx KINOMEscan

TYK2 = target: T34, TYK2 (Homo sapiens, UniProt P29597); experiment: TYK2 kinase assay (ProQinase); type: biochemical; details: kinase orthogonal assay
T34 construct: purchased ProQinase

INSR = target: T35, INSR (Homo sapiens, UniProt P06213); experiment: KINOMEscan; type: binding; details: read-out: % Ctrl
T35 construct: purchased DiscoveRx KINOMEscan

SLK = target: T36, SLK (Homo sapiens, UniProt Q9H2G2); experiment: KINOMEscan; type: binding; details: read-out: % Ctrl
T36 construct: purchased DiscoveRx KINOMEscan

T14 sequence (Q07002 whole entry): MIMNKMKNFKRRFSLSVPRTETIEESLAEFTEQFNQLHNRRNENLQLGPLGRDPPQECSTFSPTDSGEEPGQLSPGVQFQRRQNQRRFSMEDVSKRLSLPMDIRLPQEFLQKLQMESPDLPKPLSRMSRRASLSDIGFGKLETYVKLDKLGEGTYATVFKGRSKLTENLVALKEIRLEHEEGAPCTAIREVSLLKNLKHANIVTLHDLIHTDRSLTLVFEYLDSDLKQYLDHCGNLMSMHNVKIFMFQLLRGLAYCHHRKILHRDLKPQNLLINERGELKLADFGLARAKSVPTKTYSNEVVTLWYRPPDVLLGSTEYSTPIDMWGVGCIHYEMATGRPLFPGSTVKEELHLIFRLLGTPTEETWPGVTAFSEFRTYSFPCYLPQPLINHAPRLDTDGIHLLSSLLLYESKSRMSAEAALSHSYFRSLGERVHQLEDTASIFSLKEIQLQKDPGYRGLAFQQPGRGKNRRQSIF
T5 sequence (P19784 whole entry): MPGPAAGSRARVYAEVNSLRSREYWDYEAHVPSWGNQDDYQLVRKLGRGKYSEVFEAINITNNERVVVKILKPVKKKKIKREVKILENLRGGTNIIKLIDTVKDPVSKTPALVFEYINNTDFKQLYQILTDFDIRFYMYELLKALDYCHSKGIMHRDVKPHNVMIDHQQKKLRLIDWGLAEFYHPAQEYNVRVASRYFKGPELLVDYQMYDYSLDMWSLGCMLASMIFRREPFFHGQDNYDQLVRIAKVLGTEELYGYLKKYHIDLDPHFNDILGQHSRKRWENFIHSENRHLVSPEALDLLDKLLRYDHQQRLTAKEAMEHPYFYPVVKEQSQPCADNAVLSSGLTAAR
T24 sequence (Q9Y2K2 whole entry): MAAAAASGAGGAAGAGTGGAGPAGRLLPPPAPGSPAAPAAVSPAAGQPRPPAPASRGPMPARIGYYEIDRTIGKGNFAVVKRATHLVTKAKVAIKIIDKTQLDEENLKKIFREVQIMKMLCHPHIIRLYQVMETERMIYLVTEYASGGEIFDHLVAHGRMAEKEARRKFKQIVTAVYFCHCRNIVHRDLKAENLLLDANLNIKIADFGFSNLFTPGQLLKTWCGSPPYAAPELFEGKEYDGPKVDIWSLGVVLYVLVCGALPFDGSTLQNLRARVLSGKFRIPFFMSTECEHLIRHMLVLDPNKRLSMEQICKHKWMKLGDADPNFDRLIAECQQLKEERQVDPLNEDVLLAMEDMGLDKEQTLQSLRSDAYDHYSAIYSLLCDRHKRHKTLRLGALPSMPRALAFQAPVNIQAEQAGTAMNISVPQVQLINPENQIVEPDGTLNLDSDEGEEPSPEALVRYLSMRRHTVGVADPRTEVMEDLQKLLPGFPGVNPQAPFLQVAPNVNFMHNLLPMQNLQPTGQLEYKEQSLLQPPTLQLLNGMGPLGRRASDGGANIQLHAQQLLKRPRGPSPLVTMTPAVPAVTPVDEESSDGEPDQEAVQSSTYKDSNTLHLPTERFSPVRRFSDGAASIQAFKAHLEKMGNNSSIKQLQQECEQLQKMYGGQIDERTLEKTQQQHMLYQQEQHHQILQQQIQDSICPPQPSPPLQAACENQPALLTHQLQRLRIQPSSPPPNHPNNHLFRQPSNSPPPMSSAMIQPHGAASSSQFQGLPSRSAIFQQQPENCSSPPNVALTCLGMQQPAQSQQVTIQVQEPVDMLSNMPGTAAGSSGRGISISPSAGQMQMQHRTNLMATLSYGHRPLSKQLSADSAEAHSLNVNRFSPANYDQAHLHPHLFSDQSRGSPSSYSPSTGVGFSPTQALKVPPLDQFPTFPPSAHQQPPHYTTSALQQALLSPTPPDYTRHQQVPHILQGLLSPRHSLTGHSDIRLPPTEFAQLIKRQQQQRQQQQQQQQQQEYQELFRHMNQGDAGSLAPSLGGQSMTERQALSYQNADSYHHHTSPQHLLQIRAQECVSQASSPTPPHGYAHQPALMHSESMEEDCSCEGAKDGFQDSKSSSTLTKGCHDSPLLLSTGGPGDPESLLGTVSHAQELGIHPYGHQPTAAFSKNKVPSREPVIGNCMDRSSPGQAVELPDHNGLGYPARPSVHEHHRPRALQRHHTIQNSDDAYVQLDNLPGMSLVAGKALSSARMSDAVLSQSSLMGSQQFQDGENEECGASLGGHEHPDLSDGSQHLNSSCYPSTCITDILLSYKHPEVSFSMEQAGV
T7 sequence (P27448 whole entry): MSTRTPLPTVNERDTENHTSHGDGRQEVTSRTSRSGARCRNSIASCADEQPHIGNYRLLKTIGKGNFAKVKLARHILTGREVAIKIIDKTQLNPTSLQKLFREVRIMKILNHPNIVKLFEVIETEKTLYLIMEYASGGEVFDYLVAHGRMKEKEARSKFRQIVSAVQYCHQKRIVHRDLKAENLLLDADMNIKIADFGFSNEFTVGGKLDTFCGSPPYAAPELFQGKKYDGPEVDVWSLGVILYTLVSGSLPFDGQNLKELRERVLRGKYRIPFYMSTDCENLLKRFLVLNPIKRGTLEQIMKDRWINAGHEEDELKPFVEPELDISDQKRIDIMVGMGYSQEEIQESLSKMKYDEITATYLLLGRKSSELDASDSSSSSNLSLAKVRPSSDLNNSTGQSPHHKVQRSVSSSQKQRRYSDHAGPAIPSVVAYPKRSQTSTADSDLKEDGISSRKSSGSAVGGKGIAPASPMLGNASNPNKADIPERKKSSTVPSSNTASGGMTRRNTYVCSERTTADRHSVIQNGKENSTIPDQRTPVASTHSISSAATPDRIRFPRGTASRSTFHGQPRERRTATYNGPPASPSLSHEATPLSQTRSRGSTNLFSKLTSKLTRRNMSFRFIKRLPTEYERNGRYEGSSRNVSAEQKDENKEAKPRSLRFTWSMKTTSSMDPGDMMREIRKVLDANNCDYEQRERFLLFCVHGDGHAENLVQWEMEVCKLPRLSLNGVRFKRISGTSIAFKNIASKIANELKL
T9 sequence (O96013 whole entry): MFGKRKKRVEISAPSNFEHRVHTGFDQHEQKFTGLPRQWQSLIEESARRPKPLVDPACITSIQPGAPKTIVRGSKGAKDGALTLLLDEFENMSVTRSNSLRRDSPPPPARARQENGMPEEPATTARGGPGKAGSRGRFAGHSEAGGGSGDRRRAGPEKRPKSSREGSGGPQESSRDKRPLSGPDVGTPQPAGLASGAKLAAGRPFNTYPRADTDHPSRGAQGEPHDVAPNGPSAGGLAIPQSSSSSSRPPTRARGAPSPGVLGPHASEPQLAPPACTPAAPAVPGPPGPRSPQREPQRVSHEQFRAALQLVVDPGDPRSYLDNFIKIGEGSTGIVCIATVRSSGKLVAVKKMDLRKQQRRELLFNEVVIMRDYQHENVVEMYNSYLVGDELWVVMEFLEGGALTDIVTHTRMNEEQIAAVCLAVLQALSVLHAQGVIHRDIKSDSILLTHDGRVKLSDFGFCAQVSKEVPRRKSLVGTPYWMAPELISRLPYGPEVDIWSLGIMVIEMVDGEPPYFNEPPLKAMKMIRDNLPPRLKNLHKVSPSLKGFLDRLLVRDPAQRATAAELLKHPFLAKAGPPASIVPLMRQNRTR
T26 sequence (P10721 26-976 V559D/T670I): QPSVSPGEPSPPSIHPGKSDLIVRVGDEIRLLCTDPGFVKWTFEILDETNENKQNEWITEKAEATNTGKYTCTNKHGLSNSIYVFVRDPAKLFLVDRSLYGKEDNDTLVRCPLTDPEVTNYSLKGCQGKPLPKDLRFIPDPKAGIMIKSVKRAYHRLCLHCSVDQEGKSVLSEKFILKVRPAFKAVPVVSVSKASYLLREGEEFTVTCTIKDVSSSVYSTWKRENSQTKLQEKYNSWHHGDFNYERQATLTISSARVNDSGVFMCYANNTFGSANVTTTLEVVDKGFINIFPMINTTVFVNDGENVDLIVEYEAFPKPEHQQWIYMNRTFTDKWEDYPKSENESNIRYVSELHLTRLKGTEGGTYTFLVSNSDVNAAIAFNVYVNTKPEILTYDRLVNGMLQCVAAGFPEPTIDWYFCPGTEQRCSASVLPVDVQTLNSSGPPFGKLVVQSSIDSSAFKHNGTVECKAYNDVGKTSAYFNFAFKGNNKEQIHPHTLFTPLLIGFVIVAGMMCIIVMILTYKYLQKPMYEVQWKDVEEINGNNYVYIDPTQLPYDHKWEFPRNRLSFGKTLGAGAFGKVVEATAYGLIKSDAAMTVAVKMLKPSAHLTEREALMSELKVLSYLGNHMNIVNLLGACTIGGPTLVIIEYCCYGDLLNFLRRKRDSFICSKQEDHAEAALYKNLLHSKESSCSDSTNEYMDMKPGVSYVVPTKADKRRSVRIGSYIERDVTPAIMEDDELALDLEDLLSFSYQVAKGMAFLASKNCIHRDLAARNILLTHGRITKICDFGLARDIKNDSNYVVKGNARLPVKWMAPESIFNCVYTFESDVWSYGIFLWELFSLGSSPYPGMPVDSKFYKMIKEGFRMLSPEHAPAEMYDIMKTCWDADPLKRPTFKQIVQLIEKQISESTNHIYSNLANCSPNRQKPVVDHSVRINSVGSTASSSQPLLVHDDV
T12 sequence (P42685 whole entry): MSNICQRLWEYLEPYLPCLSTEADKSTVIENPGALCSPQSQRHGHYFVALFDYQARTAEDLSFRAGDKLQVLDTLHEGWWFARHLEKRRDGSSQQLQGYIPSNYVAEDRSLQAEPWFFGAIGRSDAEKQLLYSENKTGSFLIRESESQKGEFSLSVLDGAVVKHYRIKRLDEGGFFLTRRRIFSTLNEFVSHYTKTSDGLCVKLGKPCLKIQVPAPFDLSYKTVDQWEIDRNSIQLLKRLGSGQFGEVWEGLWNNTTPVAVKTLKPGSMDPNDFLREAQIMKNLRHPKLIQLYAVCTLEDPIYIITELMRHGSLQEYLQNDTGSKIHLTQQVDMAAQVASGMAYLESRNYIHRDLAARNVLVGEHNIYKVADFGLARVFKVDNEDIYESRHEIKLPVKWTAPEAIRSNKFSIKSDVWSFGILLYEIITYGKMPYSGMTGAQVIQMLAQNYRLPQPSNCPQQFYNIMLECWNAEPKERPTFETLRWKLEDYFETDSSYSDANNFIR

Compound: CN1CCC(CNc2ccc3ncc(C(=O)Nc4cccc(OC(F)(F)F)c4)n3n2)CC1 [Cpd 2]
- remaining binding at 1 µM (DCAMKL1): 85%
- remaining binding at 1 µM (JNK1): 92%
- remaining binding at 1 µM (MAP3K15): 100%
- remaining binding at 1 µM (MLCK): 100%
- remaining binding at 1 µM (CSNK2A2): 39%
- remaining binding at 1 µM (PIP5K2B): 95%
- remaining binding at 1 µM (MARK3): 100%
- levels in plasma (Pharmacokinetic study; after intravenous administration): low levels in plasma
- clearance (Pharmacokinetic study; intravenous administration): > 100 % hepatic blood flow
- remaining binding at 1 µM (HUNK): 100%
- remaining binding at 1 µM (PAK4): 100%
- remaining binding at 1 µM (PIP5K1C): 74%
- remaining binding at 1 µM (ADCK4): 99%
- remaining binding at 1 µM (FRK): 100%
- remaining binding at 1 µM (PDGFRA): 81%
- remaining binding at 1 µM (PCTK3): 100%
- remaining binding at 1 µM (YANK2): 100%
- remaining binding at 1 µM (NEK9): 88%
- remaining binding at 1 µM (AXL): 65%
- remaining binding at 1 µM (MET): 100%
- remaining binding at 1 µM (PRKG2): 100%
- remaining binding at 1 µM (TYK2(JH1D.-cat.)): 65%
- remaining binding at 1 µM (CTK): 70%
- remaining binding at 1 µM (VRK2): 100%
- remaining binding at 1 µM (AAK1): 89%
- remaining binding at 1 µM (QSK): 100%
- remaining binding at 1 µM (TSSK3): 95%
- remaining binding at 1 µM (KIT(V559D,T670I)): 100%
- remaining binding at 1 µM (JNK3): 100%
- remaining binding at 1 µM (STK35): 92%
- remaining binding at 1 µM (LKB1): 96%
- remaining binding at 1 µM (ABL1(H396P)-nonP): 93%
- remaining binding at 1 µM (TGFBR1): 100%
- remaining binding at 1 µM (BRSK2): 100%
- % Ctrl (FLT3(ITD,F691L)): 34%
- remaining binding at 1 µM (TAK1): 70%
- IC50 (TYK2): 65 µM
- remaining binding at 1 µM (INSR): 100%
- remaining binding at 1 µM (SLK): 79%
